From patent US8846928B2 (Portola Pharmaceuticals, Inc., priority 2010, dated 2014)

Biological target: T1, full length active recombinant SYK enzyme (Homo sapiens, UniProt P43405)
T1 construct: full length active recombinant SYK enzyme (Millipore, Calif.); purchased Millipore
Experiment: Inhibition of Syk tyrosine phosphorylation activity (LANCE TR-FRET kinase assay)
Type: biochemical

| IC50 [nM] | Compound |
| --- | --- |
| 1 to 10 | CC(C)C[C@@H](Nc1nc(Nc2ccc3ncccc3c2)c(C(N)=O)cc1F)C(N)=O [Example 248, (R)-6-(1-amino-4-methyl-1-oxopentan-2-ylamino)-5-fluoro-2-(quinolin-6-ylamino)nicotinamide] |
| 100 to 1000 | COC[C@H](N)CNc1ccc(C(N)=O)c(Nc2cccc(C)c2)n1 [Example 103, (R)-2-(m-toluidino)-6-(2-amino-3-methoxypropylamino)nicotinamide] |
| 10 to 100 | CC[C@@H](Nc1nc(Nc2cccc3ncccc23)c(C(N)=O)cc1F)C(N)=O [Example 245, (R)-6-(1-amino-1-oxobutan-2-ylamino)-5-fluoro-2-(quinolin-5-ylamino)nicotinamide] |
| 1 to 10 | N#Cc1cc(C(N)=O)c(Nc2ccc3ncsc3c2)nc1N[C@@H]1CCCC[C@@H]1N [Example 118, 6-((1R,2S)-2-aminocyclohexylamino)-2-(benzo[d]thiazol-6-ylamino)-5-cyanonicotinamide] |
| 1 to 10 | NC(=O)c1cc(F)c(N[C@@H]2CCCC[C@@H]2N)nc1Nc1ccc2nccnc2c1 [Example 76, 6-((1R,2S)-2-aminocyclohexylamino)-5-fluoro-2-(quinoxalin-6-ylamino)nicotinamide] |
| 10 to 100 | NC(=O)c1ccc(N[C@@H]2CCCC[C@@H]2N)nc1Nc1cnc2ccncc2c1 [Example 406, 2-(1,6-naphthyridin-3-ylamino)-6-((1R,2S)-2-aminocyclohexylamino)nicotinamide] |
| 1 to 10 | Cc1cccc(Nc2nc(N[C@@H]3CCOC[C@@H]3N)c(F)cc2C(N)=O)c1 [Example 385, 6-((3R,4R)-3-aminotetrahydro-2H-pyran-4-ylamino)-5-fluoro-2-(m-tolylamino)nicotinamide] |
| 1 to 10 | NC(=O)c1ccc(N[C@@H]2CCCC[C@@H]2N)nc1Nc1cccnc1 [Example 180, 6-((1R,2S)-2-aminocyclohexylamino)-2-(pyridin-3-ylamino)nicotinamide] |
| > 1000 | Cc1cccc(Nc2cc(N[C@@H]3CCCC[C@@H]3N)ccc2C(N)=O)c1 [Example 1, 4-((1R,2S)-2-aminocyclohexylamino)-2-(m-tolylamino)benzamide] |
| 10 to 100 | CC[C@@H](Nc1nc(Nc2cncc(F)c2)c(C(N)=O)cc1F)C1(N)CC1 [Example 373, (R)-6-(1-(1-aminocyclopropyl)propylamino)-5-fluoro-2-(5-fluoropyridin-3-ylamino)nicotinamide] |
| 10 to 100 | CC[C@H](CN)Nc1nc(Nc2cncc(C)c2)c(C(N)=O)cc1F [Example 95, (R)-6-(1-aminobutan-2-ylamino)-5-fluoro-2-(5-methylpyridin-3-ylamino)nicotinamide] |
| 1 to 10 | NC(=O)c1cc(F)c(N[C@@H]2CCCC[C@@H]2N)nc1Nc1cncc(-n2nccn2)c1 [Example 154, 2-(5-(2H-1,2,3-triazol-2-yl)pyridin-3-ylamino)-6-((1R,2S)-2-aminocyclohexylamino)-5-fluoronicotinamide] |
| 1 to 10 | NC(=O)c1cc(F)c(N[C@@H]2CCCC[C@@H]2N)nc1Nc1cccc2ncccc12 [Example 73, 6-((1R,2S)-2-aminocyclohexylamino)-5-fluoro-2-(quinolin-5-ylamino)nicotinamide] |
| 100 to 1000 | NC(=O)c1cc(F)c(N[C@@H]2CCCC(F)(F)[C@@H]2N)nc1Nc1cc(F)cc(F)c1 [Example 337, 6-((1R,2R)-2-amino-3,3-difluorocyclohexylamino)-2-(3,5-difluorophenylamino)-5-fluoronicotinamide] |
| 100 to 1000 | Cn1cc2c(Nc3nc(N[C@@H]4CCCC[C@@H]4N)c(F)cc3C(N)=O)cccc2n1 [Example 65, 6-((1R,2S)-2-aminocyclohexylamino)-5-fluoro-2-(2-methyl-2H-indazol-4-ylamino)nicotinamide] |
| 10 to 100 | CC(C)C[C@@H](Nc1nc(Nc2cnc3ccccc3c2)c(C(N)=O)cc1F)C(N)=O [Example 247, (R)-6-(1-amino-4-methyl-1-oxopentan-2-ylamino)-5-fluoro-2-(quinolin-3-ylamino)nicotinamide] |
| 10 to 100 | Cn1ccc2cc(Nc3nc(N[C@@H]4CCCC(F)(F)[C@@H]4N)c(F)cc3C(N)=O)ccc21 [Example 331, 6-((1R,2R)-2-amino-3,3-difluorocyclohexylamino)-5-fluoro-2-(1-methyl-1H-indol-5-ylamino)nicotinamide] |
| 100 to 1000 | NC(=O)c1cc(F)c(N[C@@H]2CCCC(F)(F)[C@@H]2N)nc1Nc1cccc2ncccc12 [Example 327, 6-((1R,2R)-2-amino-3,3-difluorocyclohexylamino)-5-fluoro-2-(quinolin-5-ylamino)nicotinamide] |
| 10 to 100 | CC(C)C[C@@H](Nc1nc(Nc2cccc(Cl)c2)c(C(N)=O)cc1F)C(N)=O [Example 265, (R)-6-(1-amino-4-methyl-1-oxopentan-2-ylamino)-5-fluoro-2-(3-chlorophenylamino)nicotinamide] |
| 1 to 10 | NC(=O)c1cc(F)c(N[C@@H]2CCCC[C@@H]2N)nc1Nc1cccc(N2CCCC2)c1 [Example 47, 6-((1R,2S)-2-aminocyclohexylamino)-5-fluoro-2-(3-(pyrrolidin-1-yl)phenylamino)nicotinamide] |

| IC50 [nM] | Compound |
| --- | --- |
| 1 to 10 | NC(=O)c1cc(F)c(N[C@@H]2CCCC[C@@H]2N)nc1Nc1cncc(F)c1 [Example 89, 6-((1R,2S)-2-aminocyclohexylamino)-5-fluoro-2-(5-fluoropyridin-3-ylamino)nicotinamide] |
| 10 to 100 | CC[C@@H](Nc1nc(Nc2cnc3ccccc3c2)c(C(N)=O)cc1F)C(N)=O [Example 227, (R)-6-(1-amino-1-oxobutan-2-ylamino)-5-fluoro-2-(quinolin-3-ylamino)nicotinamide] |
| 1 to 10 | N#Cc1cc(C(N)=O)c(Nc2cnc3ccccc3c2)nc1N[C@@H]1CCCC[C@@H]1N [Example 129] |
| 1 to 10 | NC(=O)c1cc(F)c(N[C@@H]2CCCC[C@@H]2N)nc1Nc1ccc(-n2ccnc2)cc1 [Example 51, 2-(4-(1H-imidazol-1-yl)phenylamino)-6-((1R,2S)-2-aminocyclohexylamino)-5-fluoronicotinamide] |
| 10 to 100 | NC(=O)c1cc(F)c(N[C@@H]2CCCC[C@@H]2N)nc1Nc1cnsc1 [Example 178, 6-((1R,2S)-2-aminocyclohexylamino)-5-fluoro-2-(isothiazol-4-ylamino)nicotinamide] |
| 10 to 100 | CC[C@@H](Nc1ccc(C(N)=O)c(Nc2ccc3c(ccn3C)c2)n1)C(N)=O [Example 208, (R)-6-(1-amino-1-oxobutan-2-ylamino)-2-(1-methyl-1H-indol-5-ylamino)nicotinamide] |
| 10 to 100 | CC[C@@H](Nc1ccc(C(N)=O)c(Nc2ccc3cccnc3c2)n1)C(N)=O [Example 204, (R)-6-(1-amino-1-oxobutan-2-ylamino)-2-(quinolin-7-ylamino)nicotinamide] |
| < 1 | NC(=O)c1cc(F)c(N[C@@H]2CCCC[C@@H]2N)nc1Nc1ccc2ncsc2c1 [Example 60, 6-((1R,2S)-2-aminocyclohexylamino)-2-(benzo[d]thiazol-6-ylamino)-5-fluoronicotinamide] |
| 1 to 10 | NC(=O)c1cc(F)c(N[C@@H]2CCCC[C@@H]2N)nc1Nc1cccc(-n2ccnn2)c1 [Example 43] |
| 1 to 10 | NC(=O)c1cc(F)c(N[C@@H]2CCCC[C@@H]2N)nc1Nc1ccc2ccncc2c1 [Example 68, 6-((1R,2S)-2-aminocyclohexylamino)-5-fluoro-2-(isoquinolin-7-ylamino)nicotinamide] |
| 100 to 1000 | Cn1ncc2c(Nc3nc(N[C@@H]4CCCC(F)(F)[C@@H]4N)c(F)cc3C(N)=O)cccc21 [Example 387, 6-((1R,2R)-2-amino-3,3-difluorocyclohexylamino)-5-fluoro-2-(1-methyl-1H-indazol-4-ylamino)nicotinamide] |
| 100 to 1000 | Cc1cc(Nc2cc(N[C@H](CC(C)C)C(N)=O)ccc2C(N)=O)no1 [Example 12, (R)-4-(1-amino-4-methyl-1-oxopentan-2-ylamino)-2-(5-methylisoxazol-3-ylamino)benzamide] |
| 1 to 10 | Cc1cncc(Nc2nc(N[C@@H]3CCCC[C@@H]3N)c(F)cc2C(N)=O)c1 [Example 87, 6-((1R,2S)-2-aminocyclohexylamino)-5-fluoro-2-(5-methylpyridin-3-ylamino)nicotinamide] |
| 1 to 10 | NC(=O)c1ccc(N[C@@H]2CCCC[C@@H]2N)nc1Nc1ccc2cnccc2c1 [Example 135, 2-(isoquinolin-6-ylamino)-6-((1R,2S)-2-aminocyclohexylamino)nicotinamide] |
| 1 to 10 | NC(=O)c1ccc(N[C@@H]2CCCC[C@@H]2N)nc1Nc1cncc(-n2cccn2)c1 [Example 159, 2-(5-(1H-pyrazol-1-yl)pyridin-3-ylamino)-6-((1R,2S)-2-aminocyclohexylamino)nicotinamide] |
| 1 to 10 | NC(=O)c1cc(F)c(N[C@@H]2CCOC[C@@H]2N)nc1Nc1ccc2ncsc2c1 [Example 384, 6-((3R,4R)-3-aminotetrahydro-2H-pyran-4-ylamino)-2-(benzo[d]thiazol-6-ylamino)-5-fluoronicotinamide] |
| 10 to 100 | NC(=O)c1cc(F)c(N[C@H](CC(F)(F)F)C(N)=O)nc1Nc1cnc2ccccc2c1 [Example 301, (R)-6-(1-amino-4,4,4-trifluoro-1-oxobutan-2-ylamino)-5-fluoro-2-(quinolin-3-ylamino)nicotinamide] |
| 10 to 100 | CC[C@@H](Nc1nc(Nc2ccnc3ccccc23)c(C(N)=O)cc1F)C(N)=O [Example 242, (R)-6-(1-amino-1-oxobutan-2-ylamino)-5-fluoro-2-(quinolin-4-ylamino)nicotinamide] |
| 100 to 1000 | Cc1cc(Nc2cc(N[C@@H]3CCCC[C@@H]3N)ccc2C(N)=O)on1 [Example 147, 4-((1R,2S)-2-aminocyclohexylamino)-2-(3-methylisoxazol-5-ylamino)benzamide] |
| 10 to 100 | CC[C@@H](Nc1nc(Nc2ccc3c(cnn3C)c2)c(C(N)=O)cc1F)C(N)=O [Example 241, (R)-6-(1-amino-1-oxobutan-2-ylamino)-5-fluoro-2-(1-methyl-1H-indazol-5-ylamino)nicotinamide] |
